Broadly, the IC50 is the concentration needed to halve the response being measured. Read a low IC50 as higher potency.

This passage reports IC50 results from patent US20260008770A1, “CBL-B INHIBITORS AND METHODS OF USES THEREOF” (Insilico Medicine IP Limited, priority 2022, published 2026).

Molecules are shown by their SMILES.

The target in one assay is Cbl-b protein (CBL-B, GST-Tag) (Homo sapiens (Human), UniProt Q13191). In words: HTRF based binding assay, affinity to Cbl-b protein.
Cbl-b protein (CBL-B, GST-Tag), sequence (Q13191 whole entry): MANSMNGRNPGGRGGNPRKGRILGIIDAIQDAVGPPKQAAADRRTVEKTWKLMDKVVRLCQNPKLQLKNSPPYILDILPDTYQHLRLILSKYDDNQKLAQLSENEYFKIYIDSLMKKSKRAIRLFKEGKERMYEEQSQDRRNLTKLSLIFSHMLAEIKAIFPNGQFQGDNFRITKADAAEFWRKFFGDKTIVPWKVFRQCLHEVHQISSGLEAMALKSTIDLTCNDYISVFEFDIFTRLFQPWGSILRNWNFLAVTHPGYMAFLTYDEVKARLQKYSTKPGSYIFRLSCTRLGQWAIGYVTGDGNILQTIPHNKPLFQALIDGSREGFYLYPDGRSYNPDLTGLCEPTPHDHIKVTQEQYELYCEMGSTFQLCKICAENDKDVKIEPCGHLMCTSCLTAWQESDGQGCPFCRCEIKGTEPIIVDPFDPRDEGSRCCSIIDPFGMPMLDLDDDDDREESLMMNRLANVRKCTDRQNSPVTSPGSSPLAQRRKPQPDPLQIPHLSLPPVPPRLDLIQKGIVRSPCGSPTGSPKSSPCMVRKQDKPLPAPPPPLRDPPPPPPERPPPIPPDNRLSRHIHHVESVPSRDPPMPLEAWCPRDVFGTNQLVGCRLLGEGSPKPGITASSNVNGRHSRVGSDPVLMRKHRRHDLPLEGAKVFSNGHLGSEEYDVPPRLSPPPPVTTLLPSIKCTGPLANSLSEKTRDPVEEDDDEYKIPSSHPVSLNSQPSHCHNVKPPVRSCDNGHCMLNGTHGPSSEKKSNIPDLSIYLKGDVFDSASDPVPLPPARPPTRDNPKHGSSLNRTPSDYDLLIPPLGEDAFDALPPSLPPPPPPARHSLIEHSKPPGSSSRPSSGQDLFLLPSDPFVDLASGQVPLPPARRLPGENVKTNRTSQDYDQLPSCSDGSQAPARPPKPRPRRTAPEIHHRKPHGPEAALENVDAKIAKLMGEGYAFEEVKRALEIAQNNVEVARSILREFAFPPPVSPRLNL
Details: not given
(Time-resolved FRET reads energy transfer from a long-lived donor to a nearby acceptor.)
In turn, `C[C@H]1CCCN(Cc2cc3c(=O)n(-c4cccc([C@]5(c6nncn6C)C[C@@H](C)C5)c4)cnc3c(C(F)(F)F)n2)C1` [Example 62] displayed an IC50 of 0.02 to 0.05 µM.

Take `CC1CC(c2cccc(-n3[nH]c(=O)c4c(C(F)(F)F)cc(CN5CCC[C@H](C)C5)cc4c3=O)c2)(c2nncn2C)C1` (stereo partly drawn) [Example 81]: the IC50 was 0.05 to 0.5 µM.

`C#Cc1cc(-n2cc3c(C(F)(F)F)cc(CN4CCC[C@H](C)C4)cc3n2)cc(C2(c3nncn3C)CC(C)C2)c1` (stereo partly drawn) [Example 51] returned an IC50 of 0.05 to 0.5 µM.

The compound `CC1CC(c2cccc(-c3nc4cc(CN5CCC[C@H](C)C5)cc(C(F)(F)F)c4[nH]3)c2)(c2nncn2C)C1` (stereo partly drawn) [Example 17] had an IC50 of 0.05 to 0.5 µM.

Take `CC1CN(Cc2cc(C(F)(F)F)c3ncn(-c4cc([C@]5(c6nncn6C)C[C@@H](C)C5)ccn4)c(=O)c3c2)CCC1(F)F` (stereo partly drawn) [Example 34]: the IC50 fell in the range of 0.02 to 0.05 µM.

Take `CC1CC(c2cccc(-n3ncc4c(C(F)(F)F)cc(CN5CCC(F)(F)[C@H](C)C5)cc4c3=O)c2)(c2nncn2C)C1` (stereo partly drawn) [Example 14]: the IC50 was 0.05 to 0.5 µM.

In turn, `C[C@H]1CCCN(Cc2cc(C(F)(F)F)c3cn(-c4cc([C@]5(c6nncn6C)C[C@H](C)C5)ccn4)nc3c2)C1` [Example 71] had an IC50 of 0.05 to 0.5 µM.

In turn, `C[C@H]1CCCN(Cc2cc(C(F)(F)F)c3cnn(-c4cc([C@]5(c6nncn6C)C[C@@H](C)C5)ccn4)c(=O)c3c2)C1` (single isomer, unassigned) [Example 55] registered an IC50 of 0.5 to 1 µM.

As to `C[C@H]1CCCN(Cc2cc(C(F)(F)F)c3cn(-c4cccc([C@]5(c6nncn6C)C[C@@H](OC(F)(F)F)C5)c4)nc3c2)C1` [Example 92], the IC50 fell in the range of 0.05 to 0.5 µM.

For the compound `CC1CC(c2cccc(-c3nc4cc(CN5CCO[C@H](C)C5)cc(C(F)(F)F)c4s3)c2)(c2nncn2C)C1` (stereo partly drawn) [Example 11], the IC50 fell in the range of 0.05 to 0.5 µM.

The compound `C[C@H]1CCCN(Cc2cc(C(F)(F)F)c3ncn(-c4cc([C@]5(c6nncn6C)C[C@@H](CF)C5)ccn4)c(=O)c3c2)C1` [Example 114] displayed an IC50 of 0.02 to 0.05 µM.

`CC1CC(c2cccc(-c3n[nH]c4c(CN5CCC[C@H](C)C5)cc(C(F)(F)F)nc34)c2)(c2nncn2C)C1` (stereo partly drawn) [Example 5, (S)-3-(3-(3-methyl-1-(4-methyl-4H-1,2,4-triazol-3-yl)cyclobutyl)phenyl)-7-((3-methylpiperidin-1-yl)methyl)-5-(trifluoromethyl)-1H-pyrazolo[4,3-b]pyridine]: the IC50 lay in the range of 0.05 to 0.5 µM.

`Cn1cnnc1[C@]1(c2cccc(-n3cc4c(C(F)(F)F)cc(CN5CCC[C@H](OC(F)F)C5)cc4n3)c2)C[C@H](C)C1` [Example 74] showed an IC50 of 0.05 to 0.5 µM.

Compound `CCc1cc([C@]2(c3nncn3C)C[C@@H](C)C2)cc(-n2cnc3ccc(CN4CCC[C@H](C)C4)cc3c2=O)n1` [Example 93] gave an IC50 of 0.02 to 0.05 µM.

On to `CC1CC(c2cccc(-n3ncc4c(C(F)(F)F)cc(CN5CCCCC5)cc4c3=O)c2)(c2nncn2C)C1` (stereo not drawn) [Example 22], for which the IC50 is 0.05 to 0.5 µM.

Consider `C#CCC1CC(c2cccc(-n3cc4c(C(F)(F)F)cc(CN5CCC[C@H](C)C5)cc4n3)c2)(c2nncn2C)C1` (stereo partly drawn) [Example 66], for which the IC50 was in the range of 0.02 to 0.05 µM.

`CC1CC(c2cccc(-c3nc4cc(CN5CCC[C@H](C)C5)cc(C(F)(F)F)c4n3C)c2)(c2nncn2C)C1` (stereo partly drawn) [Example 8] showed an IC50 of 0.05 to 0.5 µM.

`C[C@H]1CCCN(Cc2cc(C(F)(F)F)c3ncn(-c4cccc(C5(c6nncn6C)CC(=O)C5)c4)c(=O)c3c2)C1` [Example 67] registered an IC50 of 0.05 to 0.5 µM.

Turning to `COCC1CC(c2cccc(-n3cnc4c(C(F)(F)F)cc(CN5CCC[C@H](C)C5)cc4c3=O)c2)(c2nncn2C)C1` (stereo partly drawn) [Example 76], the IC50 was in the range of 0.05 to 0.5 µM.

Turning to `CC1CC(c2cncc(-n3cc4c(C(F)(F)F)cc(CN5CCC[C@H](C)C5)cc4n3)c2)(c2nncn2C)C1` (stereo partly drawn) [Example 91], the IC50 fell in the range of 0.02 to 0.05 µM.

Take `C[C@H]1CCCN(Cc2cc(C(=O)Nc3cccc([C@H](c4nncn4C)C4COC4)c3)cc(C(F)(F)F)c2)C1` [Example 27]: the IC50 lay in the range of 0.05 to 0.5 µM.

`C[C@H]1CCCN(Cc2cc(C(F)(F)F)c3cnn(-c4cccc([C@H](c5nncn5C)C5CCC5)c4)c(=O)c3c2)C1` [Example 19] registered an IC50 of 0.05 to 0.5 µM.

For the compound `C[C@H]1CCCN(Cc2cc(C(F)(F)F)c3cnn(-c4cccc(C5(Cc6nncn6C)COC5)c4)c(=O)c3c2)C1` [Example 13], the concentration for half-maximal inhibition (IC50) lay within 0.5 to 1 µM.

The compound `Cn1cnnc1[C@]1(c2ccnc(-n3ncc4c(C(F)(F)F)cc(CN5CCOC6(CCC6)C5)cc4c3=O)c2)C[C@H](C)C1` [Example 39] had a concentration for half-maximal inhibition (IC50) of 0.5 to 1 µM.

For the compound `CC1CC(c2cccc(N3CCc4c(cc(CN5CC[C@H](F)C5)cc4C(F)(F)F)C3=O)c2)(c2nncn2C)C1` (stereo partly drawn) [Example 1, (S)-7-((3-fluoropyrrolidin-1-yl)methyl)-2-(3-(3-methyl-1-(4-methyl-4H-1,2,4-triazol-3-yl)cyclobutyl)phenyl)-5-(trifluoromethyl)-3,4-dihydroisoquinolin-1(2H)-one], the IC50 fell in the range of 0.05 to 0.5 µM.

For the compound `C#Cc1cc([C@]2(c3nncn3C)C[C@@H](C)C2)cc(-n2cnc3ccc(CN4CCC[C@H](C)C4)cc3c2=O)n1` [Example 97], the IC50 was in the range of 0.05 to 0.5 µM.

The compound `CC1CC(c2ccnc(-n3cnc4c(C(F)(F)F)c(CN5CCC[C@H](C)C5)[nH]c4c3=O)c2)(c2nncn2C)C1` (stereo partly drawn) [Example 46] showed an IC50 of 0.05 to 0.5 µM.

In turn, `CNC(=O)c1cc(-n2cc3c(C(F)(F)F)cc(CN4CCC[C@H](C)C4)cc3n2)cc(C2(c3nncn3C)CC(C)C2)c1` (stereo partly drawn) [Example 43] had an IC50 of 0.05 to 0.5 µM.

As to `C[C@H]1CCCN(Cc2cc(C(F)(F)F)c3cn(-c4cccc(C5(c6nncn6C)CC(OC(F)F)C5)c4)nc3c2)C1` (stereo partly drawn) [Example 59], the IC50 was 0.05 to 0.5 µM.

In the case of `CC1CC(c2cccc(-n3cc4c(C(F)(F)F)cc(CN5C[C@@H](C)C[C@H](C)C5)cc4n3)c2)(c2nncn2C)C1` (stereo partly drawn) [Example 86], the IC50 was in the range of 0.05 to 0.5 µM.

For the compound `Cn1cnnc1[C@]1(c2ccnc(-n3ncc4c(C(F)(F)F)cc(CN5CCCC6(CC6)C5)cc4c3=O)c2)C[C@H](C)C1` [Example 37], the IC50 lay within 0.05 to 0.5 µM.

Still in this assay, the particulars now being: HTRF binding, CBL-B (GST-Tag), fluorescence labeled Cbl-b binding probe.
`C=Cc1cc(C2(c3nncn3C)CC(C)C2)cc(-n2cnc3c(C(F)(F)F)cc(CN4CCC[C@H](C)C4)cc3c2=O)n1` (stereo partly drawn) [Example 49] came in with an IC50 of less than 0.02 µM.

For `CC1CC(c2cccc(-c3nc4cc(CN5CCC[C@H](C)C5)cc(C(F)(F)F)c4s3)c2)(c2nncn2C)C1` (stereo partly drawn) [Example 4, (S)-2-(3-(3-methyl-1-(4-methyl-4H-1,2,4-triazol-3-yl)cyclobutyl)phenyl)-5-((3-methylpiperidin-1-yl)methyl)-7-(trifluoromethyl)benzo[d]thiazole], the IC50 was less than 0.02 µM.

As for `C[C@@H]1CN(Cc2ccc3ncn(-c4cc([C@]5(c6nncn6C)C[C@@H](C)C5)cc(OCF)n4)c(=O)c3c2)CCC1F` (stereo partly drawn) [Example 123], the IC50 was less than 0.02 µM.

In turn, `Cn1cnnc1[C@]1(c2cc(OCF)nc(-n3cnc4c(C(F)(F)F)cc(CN5CCCC(C)(F)C5)cc4c3=O)c2)C[C@H](C)C1` (stereo partly drawn) [Example 108] registered an IC50 of less than 0.02 µM.

Compound `CC1CC(c2cccc(-n3ccc4c(C(F)(F)F)cc(CN5CCC[C@H](C)C5)cc4c3=O)c2)(c2nncn2C)C1` (stereo partly drawn) [Example 23] registered an IC50 of less than 0.02 µM.

Consider `C[C@H]1CCCN(Cc2cc(C(F)(F)F)c3cn(-c4cccc(C5(C(F)c6nncn6C)COC5)c4)nc3c2)C1` (stereo partly drawn) [Example 57], for which the IC50 is less than 0.02 µM.

In turn, `CC1CC(c2cccc(-n3cnc4c(C(F)(F)F)cc(CN5CCC[C@H](C)C5)cc4c3=O)c2)(c2nncn2C)C1` (stereo partly drawn) [Example 84] gave an IC50 of less than 0.02 µM.

`Cn1cnnc1CC1(c2cccc(-n3cc4c(C(F)(F)F)cc(CN5CCC[C@H](C6CC6)C5)cc4n3)c2)COC1` [Example 64] yielded an IC50 of less than 0.02 µM.

`[2H]C([2H])(c1cc(C(F)(F)F)c2ncn(-c3cccc([C@]4(c5nncn5C)C[C@@H](C)C4)c3)c(=O)c2c1)N1CCC[C@H](C)C1` [Example 104] gave an IC50 of less than 0.02 µM.

With `CC1CC(c2cc(OC(F)F)nc(-n3cnc4c(C(F)(F)F)cc(CN5CCC[C@H](C)C5)cc4c3=O)c2)(c2nncn2C)C1` (stereo partly drawn) [Example 117], the IC50 was less than 0.02 µM.

For `C[C@H]1CCCN(Cc2cc(C(=O)Nc3cccc([C@]4(c5nncn5C)C[C@@H](C)C4)c3)c(F)c(C(F)(F)F)c2)C1` [Example 28], the IC50 was less than 0.02 µM.

Take `C#CC1CC(c2ccnc(-n3cnc4c(C(F)(F)F)cc(CN5CCC[C@H](C)C5)cc4c3=O)c2)(c2nncn2C)C1` (stereo partly drawn) [Example 101]: the IC50 was less than 0.02 µM.

On to `C[C@H]1CCCN(Cc2cc(C(F)(F)F)c3cn(-c4cccc(C5(Cc6nncn6C)COC5)c4)nc3c2)C1` [Example 88], for which the IC50 was less than 0.02 µM.

`C[C@H]1CCCN(Cc2cc(C(F)(F)F)c3ncn(-c4cc([C@]5(c6nncn6C)C[C@@H](C)C5)ccn4)c(=O)c3c2)C1` [Example 78] had an IC50 of less than 0.02 µM.

On to `CC1CC(c2cccc(-n3cnc4c(C(F)(F)F)c(CN5CCC[C@H](C)C5)[nH]c4c3=O)c2)(c2nncn2C)C1` (stereo partly drawn) [Example 63], for which the 50% inhibitory concentration (IC50) was less than 0.02 µM.

For the compound `CC1CC(c2cccc(-n3[nH]c4c(C(F)(F)F)cc(CN5CCC[C@H](C)C5)cc4c3=O)c2)(c2nncn2C)C1` (stereo partly drawn) [Example 73], the IC50 is greater than 1 µM.

As for `Cn1cnnc1C(F)C1(c2cccc(-n3cc4c(C(F)(F)F)cc(CN5CCC[C@H](C6CC6)C5)cc4n3)c2)COC1` (stereo partly drawn) [Example 50], the IC50 was less than 0.02 µM.

Compound `CC1CC(c2cc(C3CC3)nc(-n3cnc4c(C(F)(F)F)cc(CN5CCC[C@H](C)C5)cc4c3=O)c2)(c2nncn2C)C1` (stereo partly drawn) [Example 47] had an IC50 of less than 0.02 µM.

With `C[C@H]1CCCN(Cc2cc(C(F)(F)F)c3cnn(-c4cccc([C@@H](c5nncn5C)C5CCC5)c4)c(=O)c3c2)C1` [Example 18], the IC50 was greater than 1 µM.

As to `CC1CC(c2cc(OCF)nc(-n3ncc4c(C(F)(F)F)cc(CN5CCC[C@H](C)C5)cc4c3=O)c2)(c2nncn2C)C1` (stereo partly drawn) [Example 38], the IC50 is less than 0.02 µM.

`[2H]c1nnc(C2(c3ccnc(-n4cnc5c(C(F)(F)F)cc(CN6CCC[C@H](C)C6)cc5c4=O)c3)CC(C)C2)n1C(F)F` (stereo partly drawn) [Example 113] showed an IC50 of less than 0.02 µM.

As for `CC1CC(c2cccc(-n3ncc4c(C(F)(F)F)cc(CN5CCC(F)(F)[C@@H](C)C5)cc4c3=O)c2)(c2nncn2C)C1` (stereo partly drawn) [Example 15], the IC50 was greater than 1 µM.

Take `CC1CC(c2cccc(-n3ncc4c(C(F)(F)F)cc(CN5CCO[C@H](C)C5)cc4c3=O)c2)(c2nncn2C)C1` (stereo partly drawn) [Example 10]: the IC50 is greater than 1 µM.
